Data as given in patent US6492427B2, “Methods for treating multiple sclerosis” (priority 1998, dated 2002).

Columns and labels:
Format in all cases: cell-based, rat
[1] = tested on: oligodendroglial cells; assay: Nuclear integrity assay: counts of intact nuclei (Zap-oglobin lysis) after insulin and IGF-I withdrawal; settings: for increase in number of intact nuclei compared to BM: BM + 10^−9 M (BM-D9) vs BM; for number of intact nuclei compared to IM: IM + 10^−9 M (IM-D9)
Experimental: In order to examine insulin and IGF-I dependent survival of the cells of the oligodendroglial lineage, cells were trophically deprived for a period of 24 hours at 16 DIV.
Cells were trophically withdrawn by replacing the media with a serum free, chemically-defined base media (BM) lacking insulin and IGF-I (Bottenstein et al., 1988). The base media consisited of DMEM supplemented with penicillin (50 IU/ml); streptomycin (50 μg/ml); 1 mM sodium pyruvate; 50 μg/ml transferrin; 0.005 μg/ml sodium selenite; 16 μg/ml putrescine; 0.006 μg/ml progesterone and 0.1 mg/ml bovine serum albumin. All the cells were washed with BM twice before exposing them to individual treatment conditions. Control cells were washed and placed in BM supplemented with 2.5 ng/ml IGF-I and 5 μg/ml insulin to form the insulin media (IM).
Cell survival in the cultures was assessed according to the method of (Soto and Sonnenschein, 1985). After washing and treatment in BM, BM-D9, IM and IM-D9 for 24 h, cells were harvested, centrifuged at 500 rpm for 5 min and the supernatant removed. Pelleted cells were then lysed with 200 μl of 10% Zap-oglobin (Coulter Electronics, FL, USA). The lysing agent is a detergent containing solution that lyses the plasma membrane but leaves the nuclei intact. The lysed solution was collected and vortexed. A small volume (10 μl) of the solution was removed and intact nuclei were counted using a haemocytometer. To be counted, nuclei had to show a completely intact smooth outer border. Counts of intact nuclei were pooled for three or four experiments (a total of 15-20 wells were used for each treatment condition). each treatment condition).
OLs at 16 DIV were exposed to the different drug treatment conditions for 24 h, following which, the nuclear integrity assay was performed. On the day of the treatment, the cells growing in Nunc 24 well plates were washed twice with base media. Each treatment well received 50 μl of the appropriate drug solution and the total volume in the well was made up to 500 μl with either BM or IM.
Nuclear counts were obtained from quadruplicate wells per treatment condition and the experiment was repeated twice. OLs were exposed to the following treatment conditions: 1) IM, 2) BM, 3) BM-D9, 4) (−)-Desmethyldeprenyl (BM-Ds9), 5) IM-D9 and 6) IM +10^−9 M (−)-Desmethyldeprenyl (IM-Ds9).
The treatment conditions with the three general cytochrome P450 blockers were: 1) BM+Proadifen (2.5, 10, 25 μM), 2) BM-D9+Proadifen (2.5, 10, 25 μM), 3) BM-Ds9+Proadifen (2.5, 10, 25 μM), 4) BM+Metapyrone (50 μM), 5) BM-D9+Metapyrone (50 μM), 6) BM-Ds9+Metapyrone (50 μM), 7) BM+Piperonyl butoxide (100 μM), 5) BM-D9+Piperonyl butoxide (100 μM), 6) BM-Ds9+Piperonyl butoxide (100 μM).
OLs at 16 DIV were washed twice with base media and exposed either to actinomycin, a transcriptional blocker or cycloheximide, a translational blocker for 24 h. […] Actinomycin and cycloheximide were either used with base media alone or in combination with 10^−9 M (−)-desmethyldeprenyl. Each treatment well received 50 μl of the drug solution and the total volume of the well was made up to 500 μl with base media.
Counts of intact nuclei, obtained from quadruplicate wells per treatment condition were used to quantitate the effects of the transcriptional and translational blockers. Each experiment was repeated twice for experimental density series-II.

[2] = tested on: OLs; assay: Methylene blue counts of individual cell types: OLs; settings: BM-D9, 24 h
Experimental: Methylene blue (3,7-bis (dimethylamino)-phenothiazin-5-ium chloride), a ribonucleic acid (RNA) binding agent commonly used as an alternative nucleic acid stain, can also be used as a biological staining agent to stain cells in order to observe their morphological features. At 24 h, cells were fixed in 2% paraformaldehyde for 15 min at room temperature. Briefly, cells were washed twice with PBS and 100 μl of 1% methylene blue (Mallinckrodt Chemical Co., MO, USA) solution containing 1% AgNO3 was added for 10 min to the wells containing coverslips. Subsequently, the coverslips were washed with two changes of distilled water and absolute ethanol, cleared with xylene and mounted on slides with permount.
Cell counts were performed for 25 randomly chosen 100 power fields on each coverslip. Two randomly generated coordinates drawn from a uniform distribution of random numbers specified the center of each field. The random numbers were generated on a computer by using Microcal Origin 4.0 program. […] Three coverslips was counted for each treatment condition. In subsequent experiments, different cell types (for example, O-2A progenitors, PROLs, OLs and astrocytes) were morphologically identified on each field and were counted separately for experimental series-I and II. […]

[3] = tested on: oligodendroglial cells; assay: DNA extraction and electrophoresis (DNA ladders); settings: BM + 10^−9 M, 18 h after washing on 16 DIV

C#CCN(C)[C@H](C)Cc1ccccc1 [(−)-deprenyl, R-(−)-N,α-Dimethyl-N-2-propynyl phenethylamine]
increase in number of intact nuclei compared to BM ([1]; 24 h, experimental series-I): 217% | increase in number of intact nuclei compared to BM ([1]; 24 h, experimental series-II (15.8×10^3 cell/mm^2)): 164% | numbers of intact nuclei, % of those in IM ([1]; BM + 10^−9 M (BM-D9), 24 h, experimental series-I (5.3×10^3 cell/mm^2)): 119% | increase in counts of intact nuclei compared to those for BM ([1]; BM + 10^−9 M, 24 h, metabolite experiments (FIG. 11)): 194% | concentration-survival relationship, numbers of intact nuclei ([1]; BM with 10^−5, 10^−7 and 10^−9 M, 24 h): graded increase in the numbers of intact nuclei with the greatest increase for 10^−9 M | number of intact nuclei compared to IM ([1]; 24 h, experimental series-I): 135.6% | number of intact nuclei compared to IM ([1]; 24 h, experimental series-II): 102.4% | Survival (24 h) ([1]; OL cell survival, relative to control (IM)): ++++ | OL cell numbers compared to those in BM ([2]; experimental series II): 291% | OL cell numbers compared to those in BM ([2]; experimental series-I): 565.0% | DNA laddering on electrophoresis gels [3]: did not show detectable laddering
